Calls of active or inactive are those of the source. No cut-off for these calls is given here.

The nature of data set [1]: Inhibition of human sperm motility by Sander-Cramer modified assay. It is filed as functional.
The test system of data set [2] is Sperm. As to the kind of experiment: Inhibition of human sperm motility upto 15 mins by CASA. In kind it is functional, cell-based.
The subject of data set [3] is Sperm. As to the kind of experiment: Inhibition of human sperm motility assessed as decrease in curvilenear velocity by CASA. In kind it is functional, cell-based.
Data set [4] concerns Sperm. As to the kind of experiment: Inhibition of human sperm motility assessed as decrease in average path velocity by CASA. In kind it is functional.
For data set [5], the system named is Sperm. As to the kind of experiment: Inhibition of human sperm motility assessed as decrease in straight line velocity by CASA. It is filed as functional.
Data set [6] has as its system HeLa. As to the kind of experiment: Cytotoxicity against human HeLa cells at above 16 ug/ml after 24 hrs by MTT assay. It is filed as cell-based. A general note: Formazan colour is commonly taken as a measure of viable cells.
For data set [7], the system named is Sperm. As to the kind of experiment: Inhibition of human sperm motility at 5 ug/ml after 15 mins by CASA. In kind it is functional.
Data set [8] is described as follows: Inhibition of human sperm motility at 20 ug/ml after 5 mins by CASA. It is filed as functional. Also noted: scale not given: the % may be the effect or the level left.

In data set [1], H-LLKKVLKAAAKAALNAVLVGANA-OH returned an EC100 of 25 µg/mL. For the same molecule, the outcome in data set [2] was inactive. Moreover, the Activity result in data set [3], in data set [4] and in data set [5] was “Dose-dependent effect” each time.

In turn, “H-ALWMTLLKKVLKAAAKAALNAVLVGANA-NH2 [listing 1 of 2 here]” came in with an EC100 in data set [1] of 25 µg/mL.

With “H-ALWMTLLKKVLKAAAKAALNAVLVGANA-NH2 [listing 2 of 2 here]”, in data set [6], the Activity result is listed as “Toxic”.

In data set [1], H-ALWMTLLKKVLKAAAKAALNAVLVGANA-OH registered an EC100 of 25 µg/mL.

Regarding `CC(C)C[C@H](NC[C@@H](NC(=O)[C@H](C)NC(=O)[C@H](CC(N)=O)NC(=O)[C@H](CC(C)C)NC(=O)[C@H](C)NC(=O)[C@H](C)NC(=O)[C@H](CCCCN)NC(=O)[C@H](C)NC(=O)[C@H](C)NC(=O)[C@H](C)NC(=O)[C@H](CCCCN)NC(=O)[C@H](CC(C)C)NC(=O)[C@@H](NC(=O)[C@H](CCCCN)NC(=O)[C@H](CCCCN)NC(=O)[C@H](CC(C)C)NC(=O)[C@H](CC(C)C)NC(=O)[C@@H](NC(=O)[C@H](CCCCN)NC(=O)[C@H](Cc1c[nH]c2ccccc12)NC(=O)[C@H](CC(C)C)NC(=O)[C@H](C)N)[C@@H](C)O)C(C)C)C(C)C)C(=O)N[C@H](C(=O)NCC(=O)N[C@@H](C)C(=O)N[C@@H](CC(N)=O)C(=O)N[C@@H](C)C(=O)O)C(C)C`, the outcome in data set [7] was Active. For the same molecule, the Activity result in data set [3], in data set [4] and in data set [5] was “Dose-dependent effect” throughout.

In the case of `CSCC[C@H](NC(=O)[C@H](Cc1c[nH]c2ccccc12)NC(=O)[C@H](CC(C)C)NC(=O)[C@H](C)N)C(=O)N[C@H](C(=O)N[C@@H](CC(C)C)C(=O)N[C@@H](CC(C)C)C(=O)N[C@@H](CCCCN)C(=O)N[C@@H](CCCCN)C(=O)N[C@H](C(=O)N[C@@H](CC(C)C)C(=O)N[C@@H](CCCCN)C(=O)N[C@@H](C)C(=O)N[C@@H](C)C(=O)N[C@@H](C)C(=O)N[C@@H](CCCCN)C(=O)N[C@@H](C)C(=O)N[C@@H](C)C(=O)N[C@@H](CC(C)C)C(=O)N[C@@H](CC(N)=O)C(=O)N[C@@H](C)C(=O)N[C@H](CN[C@@H](CC(C)C)C(=O)N[C@H](C(=O)NCC(=O)N[C@@H](C)C(=O)N[C@@H](CC(N)=O)C(=O)N[C@@H](C)C(N)=O)C(C)C)C(C)C)C(C)C)[C@@H](C)O`, the Activity result in data set [3], in data set [4] and in data set [5] was “Dose-dependent effect” in each case.

In the case of “H-ALWKTLLKKVLKAAAKAALNAVLVGANA-OH [listing 1 of 2 here]”, the Activity in data set [8] was determined as 100%.

For H-ALWKTLLKKVLKAAAK-NH2, the EC100 in data set [1] turned out to be 25 µg/mL. The Activity result in data set [3] was “Dose-dependent effect”; in data set [4], “Dose-dependent effect”; in data set [5] it was “Dose-dependent effect”; in data set [6], “Toxic”.

As to “H-ALWKTLLKKVLKAAAKAALNAVLVGANA-OH [listing 2 of 2 here]”, in data set [6], the Activity result is reported as “Toxic”.

The values above are taken from ChEMBL document CHEMBL1143886, “In vitro spermicidal activity of peptides from amphibian skin: dermaseptin S4 and derivatives” (Bioorg Med Chem, 2008).
